Converted amounts (≈) assume the structure as drawn. Structures can show the parent of a compound that is named as a salt. Where two headings read alike, the source gives them in different places.
How the values were obtained:
Serratia marcescens SM [1] = experiment: In vitro MIC, Broth Dilution Method; format: cell-based; details: read-out: In Vitro MIC
Experimental: (§1) The diluted agents prepared in Mueller-Hinton broth were dispensed from a Dynatech MIC 2000 machine, in 100 microliter (μL) volumes into 96 well trays and used immediately or frozen at -10° to -70° C. until needed. Using a Dynatech inoculator and inoculum trays, 1.5 μL of a 10^-2 dilution of an overnight culture was added to each well of the tray. The tops of the trays were then sealed with tape, and the trays were incubated overnight at 37° C. and then examined with a viewer. The lowest concentration at which no growth was observed was considered to be the minimum inhibitory concentration (MIC).

[2] = test system: Enterobacter cloacae 5699; experiment: In vitro MIC, Broth Dilution Method; format: cell-based
Experimental: as §1

[3] = test system: Pseudomonas aeruginosa Stone 130; experiment: In vitro MIC, Broth Dilution Method; format: cell-based
Experimental: as §1

Klebsiella pneumoniae A = experiment: In vitro MIC, Broth Dilution Method; format: cell-based; details: read-out: In Vitro MIC
Experimental: as §1

[4] = test system: Streptococcus faecalis ATCC 29212; experiment: In vitro MIC, Broth Dilution Method; format: cell-based; details: Enterococcus faecalis, ATCC29212; Broth Dilution Method; Streptococcus faecalis ATCC 29212; read-out: In Vitro MIC
Experimental: as §1

[5] = test system: Staphylococcus aureus ATCC 29213; experiment: In vitro MIC, Broth Dilution Method; format: cell-based
Experimental: as §1

Escherichia coli 4 = experiment: In vitro MIC, Broth Dilution Method; format: cell-based
Experimental: as §1

[6] = test system: Streptococcus pneumoniae 6301; experiment: In vitro MIC, Broth Dilution Method; format: cell-based
Experimental: as §1

[7] = test system: Staphylococcus aureus Smith; experiment: In vitro MIC, Broth Dilution Method; format: cell-based; details: read-out: In Vitro MIC
Experimental: as §1

Proteus mirabilis 2 = experiment: In vitro MIC, Broth Dilution Method; format: cell-based
Experimental: as §1

Escherichia coli TEM-1 = experiment: In vitro MIC, Broth Dilution Method; format: cell-based; details: TEM1, read-out: In Vitro MIC
Experimental: as §1

Proteus mirabilis 90 = experiment: In vitro MIC, Broth Dilution Method; format: cell-based
Experimental: as §1

Enterobacter cloacae P99 = experiment: In vitro MIC, Broth Dilution Method; format: cell-based; details: P99, read-out: In Vitro MIC
Experimental: as §1

[8] = test system: Pseudomonas aeruginosa ATCC 27853; experiment: In vitro MIC, Broth Dilution Method; format: cell-based; details: ATCC27853; Broth Dilution Method; Pseudomonas aeruginosa ATCC 27853; read-out: In Vitro MIC
Experimental: as §1

[9] = test system: Proteus vulgaris ATCC 6380; experiment: In vitro MIC, Broth Dilution Method; format: cell-based; details: Proteus vulgaris, ATCC6380, read-out: In Vitro MIC
Experimental: as §1

[10] = test system: Citrobacter freundii BS-16; experiment: In vitro MIC, Broth Dilution Method; format: cell-based; details: BS16; Broth Dilution Method; Citrobacter freundii BS-16; read-out: In Vitro MIC
Experimental: as §1

Serratia marcescens SM [11] = experiment: In vitro MIC, Agar Well Diffusion Method; format: cell-based; details: read-out: In Vitro MIC
Experimental: (§2) In vitro antimicrobial activity was determined in BBL seed agar. Serial dilutions of the test compound were pipetted into agar wells (80 μL per well). […] For reference, see A. H. Litton, Antibiotics: Assessment of Antimicrobial Activity and Resistance, Academic Press, New York, pages 19-30 (1983).

Pseudomonas aeruginosa B = experiment: In vitro MIC, Agar Well Diffusion Method; format: cell-based; details: read-out: In Vitro MIC
Experimental: as §2

[12] = test system: Streptococcus faecium ATCC 8043; experiment: In vitro MIC, Agar Well Diffusion Method; format: cell-based; details: Enterococcus faecium
Experimental: as §2

[13] = test system: Pseudomonas aeruginosa 56; experiment: In vitro MIC, Agar Well Diffusion Method; format: cell-based
Experimental: as §2

[14] = test system: Enterobacter cloacae 2952B; experiment: In vitro MIC, Agar Well Diffusion Method; format: cell-based; details: read-out: In Vitro MIC
Experimental: as §2

Micrococcus luteus PCl = experiment: In vitro MIC, Agar Well Diffusion Method; format: cell-based; details: read-out: In Vitro MIC
Experimental: as §2

[15] = test system: Klebsiella pneumoniae 369; experiment: In vitro MIC, Agar Well Diffusion Method; format: cell-based
Experimental: as §2

Escherichia coli 1269B = experiment: In vitro MIC, Agar Well Diffusion Method; format: cell-based; details: read-out: In Vitro MIC
Experimental: as §2

Proteus vulgaris 101N = experiment: In vitro MIC, Agar Well Diffusion Method; format: cell-based; details: read-out: In Vitro MIC
Experimental: as §2

Streptococcus 82 = experiment: In vitro MIC, Agar Well Diffusion Method; format: cell-based, Streptococcus aureus
Experimental: as §2

[16] = stability of the product (remark in the preparation); format: physicochemical; details: remark on the isolated product
[17] = Broth Dilution Method, Serratia marcescens SM
[18] = Broth Dilution Method, Enterobacter cloacae 5699, read-out: In Vitro MIC
[19] = STONE130, Broth Dilution Method, Pseudomonas aeruginosa Stone 130, read-out: In Vitro MIC
[20] = Broth Dilution Method, Klebsiella pneumoniae A
[21] = ATCC29213, Broth Dilution Method, Staphylococcus aureus ATCC 29213, read-out: In Vitro MIC
[22] = Broth Dilution Method, Escherichia coli 4, read-out: In Vitro MIC
[23] = Broth Dilution Method, Staphylococcus aureus Smith
[24] = Broth Dilution Method, Proteus mirabilis 2, read-out: In Vitro MIC
[25] = Broth Dilution Method, Proteus mirabilis 90, read-out: In Vitro MIC
[26] = Agar Well Diffusion Method, Serratia marcescens SM
[27] = Agar Well Diffusion Method, Pseudomonas aeruginosa B
[28] = ATCC8043, Agar Well Diffusion Method, Streptococcus faecium ATCC 8043, read-out: In Vitro MIC
[29] = Agar Well Diffusion Method, Pseudomonas aeruginosa 56, read-out: In Vitro MIC
[30] = Agar Well Diffusion Method, Enterobacter cloacae 2952B
[31] = Agar Well Diffusion Method, Micrococcus luteus PCl
[32] = Agar Well Diffusion Method, Klebsiella pneumoniae 369, read-out: In Vitro MIC
[33] = Agar Well Diffusion Method, Escherichia coli 1269B
[34] = Agar Well Diffusion Method, Proteus vulgaris 101N
[35] = Agar Well Diffusion Method, Streptococcus aureus 82, read-out: In Vitro MIC
[36] = Escherichia coli, 4, read-out: In Vitro MIC
[37] = Broth Dilution Method, Streptococcus pneumoniae 6301, read-out: In Vitro MIC
[38] = Proteus mirabilis, 2, read-out: In Vitro MIC
[39] = Enterobacter cloacae, 5699, read-out: In Vitro MIC
[40] = Pseudomonas aeruginosa, STONE130, read-out: In Vitro MIC
[41] = Proteus mirabilis, 90, read-out: In Vitro MIC

Row | SMILES | MIC (Serratia marcescens SM [1]; [17]) [µg/mL] | MIC [2, 18] [µg/mL] | MIC [3, 19] [µg/mL] | MIC [4] [µg/mL] | MIC [5, 21] [µg/mL] | MIC (Escherichia coli TEM-1) [µg/mL] | MIC (Enterobacter cloacae P99) [µg/mL] | MIC [8] [µg/mL] | MIC [9] [µg/mL] | MIC [10] [µg/mL] | MIC (Serratia marcescens SM [11]; [26]) [µg/mL] | MIC (Pseudomonas aeruginosa B; [27]) [µg/mL] | MIC [12, 28] [µg/mL] | MIC [13, 29] [µg/mL] | MIC [14, 30] [µg/mL] | MIC (Micrococcus luteus PCl; [31]) [µg/mL] | MIC [15, 32] [µg/mL] | MIC (Escherichia coli 1269B; [33]) [µg/mL] | MIC (Proteus vulgaris 101N; [34]) [µg/mL] | MIC (Streptococcus 82; [35]) [µg/mL] | further results
1 | CCn1cc(C(=O)OC)c(=O)c2cc(F)c(N3CCN(C=N[C@@H]4C(=O)N5[C@@H]4SC(C)(C)[C@@H]5C(=O)O)CC3)cc21 [Compound A] | 16 (≈ 28.6 µM) | 8 (≈ 14.3 µM) | 64 (≈ 114 µM) | 32 (≈ 57.2 µM) | 16 (≈ 28.6 µM) | 4 (≈ 7.15 µM) | 8 (≈ 14.3 µM) | > 128 | 4 (≈ 7.15 µM) | 32 (≈ 57.2 µM) | 250 (≈ 447 µM) | 250 (≈ 447 µM) | 250 (≈ 447 µM) | 500 (≈ 893 µM) | 62.5 (≈ 112 µM) | 31.3 (≈ 55.9 µM) | 125 (≈ 223 µM) | 62.5 (≈ 112 µM) | 62.5 (≈ 112 µM) | 7.8 (≈ 13.9 µM) | MIC (Klebsiella pneumoniae A; [20]): 16 µg/mL (≈ 28.6 µM); MIC (Escherichia coli 4; [22]): 8 µg/mL (≈ 14.3 µM); MIC ([6]; Streptococcus pneumoniae, 6301, read-out: In Vitro MIC): 1 µg/mL (≈ 1.79 µM); MIC [7, 23]: 2 µg/mL (≈ 3.57 µM); MIC (Proteus mirabilis 2; [24]): 8 µg/mL (≈ 14.3 µM); MIC (Proteus mirabilis 90; [25]): 32 µg/mL (≈ 57.2 µM)
2 | CC1(C)S[C@@H]2[C@H](N=CN3CCN(c4c(F)cc5c(=O)c(C(=O)O)cn(CCF)c5c4F)CC3)C(=O)N2[C@H]1C(=O)O [Compound D, 2R-(2α,5α,6β)]-7-[4-[[(2-Carboxy-3,3-dimethyl-7-oxo-4-thia-1-azabicyclo[3.2.0]hept-6-yl)amino]-methylene]-1-piperazinyl]-6,8-difluoro-1-(2-fluoroethyl)-1,4-dihydro-4-dihydro-4-oxo-3-quinoline-carboxylic acid monosodium salt] | 0.25 | 0.25 | 4 | 32 | 4 | 0.125 | 0.125 | 2 | 0.063 | 1 | 31.3 | 15.6 | 15.6 | 7.8 | 7.8 | 15.6 | 7.8 | 1.95 | 1.95 | 3.9 | MIC (Klebsiella pneumoniae A; Klebsiella pneumoniae): 0.125 µg/mL; MIC (Escherichia coli 4; [36]): 0.125 µg/mL; MIC [6, 37]: 2 µg/mL; MIC ([7]; Staphylococcus aureus): 0.5 µg/mL; MIC (Proteus mirabilis 2; [38]): 0.125 µg/mL; MIC (Proteus mirabilis 90; [25]): 1 µg/mL
3 | CCn1cc(C(=O)[O-])c(=O)c2cc(F)c(N3CCN(C=N[C@H]4CN(S(=O)(=O)[O-])C4=O)CC3)cc21.[Na+].[Na+] [Compound E, (S)-1-Ethyl-6-fluoro-1,4-dihydro-4-oxo-7-[4-[[(1-sulfo-2-oxo-3-azetidinyl)imino]methyl]-1-piperazinyl]-3-quinolinecarboxylic acid disodium salt] | – | – | – | – | – | 0.063 | 0.063 | – | 0.031 | – | – | – | – | – | – | – | – | – | – | – | MIC (Serratia marcescens SM [1]; Serratia marcescens): 0.063 µg/mL; MIC [2, 39]: 0.125 µg/mL; MIC [3, 40]: 1 µg/mL; MIC (Klebsiella pneumoniae A; Klebsiella pneumoniae): 0.125 µg/mL; MIC ([5]; Staphylococcus aureus, ATCC29213, read-out: In Vitro MIC): 2 µg/mL; MIC (Escherichia coli 4; [36]): 0.125 µg/mL; MIC ([7]; Staphylococcus aureus): 0.5 µg/mL; MIC (Proteus mirabilis 2; [38]): 0.063 µg/mL; MIC (Proteus mirabilis 90; [41]): 0.063 µg/mL; MIC (Serratia marcescens SM [11]; Serratia marcescens): 3.9 µg/mL; MIC (Pseudomonas aeruginosa B; Pseudomonas aeruginosa): 3.9 µg/mL; MIC ([12]; ATCC8043, read-out: In Vitro MIC): > 125 µg/mL; MIC ([13]; Pseudomonas aeruginosa, 56, read-out: In Vitro MIC): 7.8 µg/mL; MIC ([14]; Enterobacter cloacae, 2952B): 31.3 µg/mL; MIC (Micrococcus luteus PCl; Micrococcus luteus): > 125 µg/mL; MIC ([15]; Klebsiella pneumoniae, 369, read-out: In Vitro MIC): 3.9 µg/mL; MIC (Escherichia coli 1269B; Escherichia coli, 1269B): 7.8 µg/mL; MIC (Proteus vulgaris 101N; Proteus vulgaris, 101N): 1.95 µg/mL; MIC (Streptococcus 82; Streptococcus, 82, read-out: In Vitro MIC): 15.6 µg/mL
4 | CCn1cc(C(=O)O)c(=O)c2cc(F)c(N3CCCN(C=N[C@@H]4C(=O)N5[C@@H]4SC(C)(C)[C@@H]5C(=O)O)CC3)cc21 [Compound G, [2S-(2α,5α,6β)]-7-[4-[[)2-Carboxy-3,3-dimethyl-7-oxo-4-thia-1-azabicyclo[3.2.0]hept-6-yl)-imino]methyl]hexahydro-1H-1,4-diazepin-1-yl]-1-ethyl-6-fluoro-1,4-dihydro-4-oxo-3-quinolinecarboxylic acid disodium salt] | 2 | 2 | 8 | 64 | 16 | 1 | 2 | 16 | 1 | 8 | 50 | 50 | > 400 | 100 | 100 | 25 | 100 | 50 | 50 | 50 | MIC (Klebsiella pneumoniae A; [20]): 2 µg/mL; MIC (Escherichia coli 4; [22]): 2 µg/mL; MIC [6, 37]: 2 µg/mL; MIC [7, 23]: 2 µg/mL; MIC (Proteus mirabilis 2; [38]): 4 µg/mL; MIC (Proteus mirabilis 90; [25]): 8 µg/mL
5 | CCn1cc(C(=O)O)c(=O)c2cc(F)c(N3CCN(C=N[C@@H]4C(=O)N5[C@@H]4SC(C)(C)[C@@H]5C(=O)O)CC3)nc21 [Compound H, disodium salt] | 0.5 | – | – | 8 | 0.5 | 0.125 | 0.125 | 8 | 0.125 | 0.5 | 31.3 | 15.6 | 125 | 15.6 | 31.3 | 31.3 | 7.8 | 7.8 | 7.8 | 7.8 | stability [16]: very unstable; MIC [2, 39]: 0.125 µg/mL; MIC [3, 40]: 1 µg/mL; MIC (Klebsiella pneumoniae A; [20]): 0.25 µg/mL; MIC (Escherichia coli 4; [36]): 0.125 µg/mL; MIC [6, 37]: 2 µg/mL; MIC [7, 23]: 0.5 µg/mL; MIC (Proteus mirabilis 2; [24]): 0.5 µg/mL; MIC (Proteus mirabilis 90; [41]): 1 µg/mL

Reference: US5159077A, “Penam antibacterial compounds” (Hoffmann-La Roche Inc., priority 1989, dated 1992)
